Each structure is given as a SMILES string. Several values for one entry are separate records, joined by “and”; a condition that tells them apart may be missing. Equal entries are not always repeated.

A word on the IC50: it is the concentration that gives 50% inhibition. What is called viability, T/C is the result in the treated group divided by that in the control group, in per cent.

The subject of the test is 786-0 complex spheroids with HUVEC/MSC, growth % test/control. As to the kind of experiment: Anticancer human tumor 786-0 cell line growth inhibition [AhR].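 On all read-outs here: compound exposure lasted seven days before the read-out.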 The note with it: for viability, T/C: stronger effect = lower value. The procedure, abridged: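 Complex tumor spheroids co-cultured with HUVEC and human MSC stroma; AhR antagonists tested in combination with standard-of-care and investigational agents. Top concentration at or near clinical Cmax (else 10 microM), half-log dilutions; growth expressed as percent test/control.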

[1] abbreviates: curve of first compound, second compound 0.1 µM.
The mark [2] stands for this setting: curve of first compound, second compound 0.316 µM.
The mark [3] stands for this setting: curve of first compound, second compound 1 µM.
Where [4] appears, read: curve of first compound, second compound 3.16 µM.
The mark [5] stands for this setting: curve of first compound, second compound 10 µM.
Setting [6] is: second compound 0.1 µM, first compound 0.0316 µM.
Setting [7] is: second compound 0.1 µM, first compound 0.1 µM.
Setting [8] is: second compound 0.1 µM, first compound 0.316 µM.
[9] abbreviates: second compound 0.1 µM, first compound 1 µM.
The mark [10] stands for this setting: second compound 0.316 µM, first compound 0.0316 µM.
Where [11] appears, read: second compound 0.316 µM, first compound 0.1 µM.
Where [12] appears, read: second compound 0.316 µM, first compound 0.316 µM.
Where [13] appears, read: second compound 0.316 µM, first compound 1 µM.
[14] abbreviates: second compound 1 µM, first compound 0.0316 µM.
[15] abbreviates: second compound 1 µM, first compound 0.1 µM.
Setting [16] is: second compound 1 µM, first compound 0.316 µM.
[17] abbreviates: second compound 1 µM, first compound 1 µM.
Where [18] appears, read: second compound 3.16 µM, first compound 0.0316 µM.
The mark [19] stands for this setting: second compound 3.16 µM, first compound 0.1 µM.
The mark [20] stands for this setting: second compound 3.16 µM, first compound 0.316 µM.
The mark [21] stands for this setting: second compound 3.16 µM, first compound 1 µM.
Setting [22] is: second compound 10 µM, first compound 0.0316 µM.
Setting [23] is: second compound 10 µM, first compound 0.1 µM.
Setting [24] is: second compound 10 µM, first compound 0.316 µM.
Setting [25] is: second compound 10 µM, first compound 1 µM.
Setting [26] is: second compound 0.1 µM, first compound 3.16 µM.
The mark [27] stands for this setting: second compound 0.1 µM, first compound 10 µM.
[28] abbreviates: second compound 0.316 µM, first compound 3.16 µM.
The mark [29] stands for this setting: second compound 0.316 µM, first compound 10 µM.
Where [30] appears, read: second compound 1 µM, first compound 3.16 µM.
[31] abbreviates: second compound 1 µM, first compound 10 µM.
Where [32] appears, read: second compound 3.16 µM, first compound 3.16 µM.
[33] abbreviates: second compound 3.16 µM, first compound 10 µM.
Where [34] appears, read: second compound 10 µM, first compound 3.16 µM.
Where [35] appears, read: second compound 10 µM, first compound 10 µM.

For `CC1COCCN1c1cc(-c2ccnn2C)c2ccnc(-c3ccn[nH]3)c2n1` (stereo not given) + Cc1ccccc1N=Nc1ccc(NC(=O)c2ccnn2C)c(C)c1, the IC50 runs as follows: under setting [1], 196 nM; under setting [2], 197 nM; under setting [3], 211 nM; under setting [4], 177 nM; under setting [5], 155 nM. The viability, T/C reads like this: (second compound 0.1 µM, first compound 0.00316 µM) 97.6%; (second compound 0.1 µM, first compound 0.01 µM) 108%; under setting [6], 105%; under setting [7], 86.9%; under setting [8], 23.9%; under setting [9], 8.22%. In addition, the viability, T/C (second compound 0.316 µM, first compound 0.00316 µM) is 107%; the viability, T/C (second compound 0.316 µM, first compound 0.01 µM) was 109%; the viability, T/C under setting [10] is 108%; the viability, T/C under setting [11] is 86.2%; the viability, T/C under setting [12] is 24.9%; the viability, T/C under setting [13] was 8.15%. For the same compound, the viability, T/C is 119% (second compound 1 µM, first compound 0.00316 µM); 104% (second compound 1 µM, first compound 0.01 µM); 102% under setting [14]; 92.5% under setting [15]; 26.9% under setting [16]; 7.53% under setting [17]. The viability, T/C reads like this: (second compound 3.16 µM, first compound 0.00316 µM) 99.5%; (second compound 3.16 µM, first compound 0.01 µM) 112%; under setting [18], 89.3%; under setting [19], 77.7%; under setting [20], 22.7%; under setting [21], 10.2%. Further, the viability, T/C was 96.9% (second compound 10 µM, first compound 0.00316 µM); 96.8% (second compound 10 µM, first compound 0.01 µM); 96.1% under setting [22]; 67.5% under setting [23]; 21.2% under setting [24]; 9.41% under setting [25].
Turning to `COc1cccc2c1C(=O)c1c(O)c3c(c(O)c1C2=O)CC(O)(C(=O)CO)CC3OC1CC(N)C(O)C(C)O1` (stereo not given), the viability, T/C runs as follows: (compound 0.0316 µM) 58.8% and 70% and 62%; (compound 0.1 µM) 51.9% and 65.6% and 44.9%; (compound 0.316 µM) 23.9% and 30.9% and 18.1%; (compound 1 µM) 7% and 10.7% and 3.15%; (compound 3.16 µM) 0.81% and 3.57% and 0.53%; (compound 10 µM) 0.36% and 3.07% and 0.69%. Further, the half-inhibitory concentration (IC50) (curve of compound) is 104 nM and 166 nM and 71.8 nM.
Regarding `O=C(c1cc(Cc2n[nH]c(=O)c3ccccc23)ccc1F)N1CCN(C(=O)C2CC2)CC1`, the viability, T/C runs as follows: (compound 0.0316 µM) 111% and 97.5% and 96.3%; (compound 0.1 µM) 104% and 99.7% and 103%; (compound 0.316 µM) 112% and 103% and 102%; (compound 1 µM) 108% and 109% and 104%; (compound 3.16 µM) 109% and 107% and 104%; (compound 10 µM) 107% and 98% and 91.6%. Moreover, under “curve of compound”, the IC50 was > 10000 nM.
As to `CC1COCCN1c1cc(C2(S(C)(=N)=O)CC2)nc(-c2ccnc3[nH]ccc23)n1` (stereo not given) + Cc1cncc(-c2nc(NCCc3c[nH]c4ccccc34)c3ncn(C(C)C)c3n2)c1, the half-maximal inhibitory concentration (IC50) under setting [1] turned out to be 7110 nM; the IC50 under setting [2] is 6480 nM; the IC50 under setting [3] came out at 4840 nM; the IC50 under setting [4] was determined as 1230 nM; the IC50 under setting [5] is < 31.6 nM. The viability, T/C by setting is: under setting [6], 107%; under setting [7], 118%; under setting [8], 116%; under setting [9], 113%; under setting [26], 97.7%; under setting [27], 29.8%. In addition, the viability, T/C is 122% under setting [10]; 117% under setting [11]; 112% under setting [12]; 108% under setting [13]; 91.9% under setting [28]; 25.3% under setting [29]. The viability, T/C runs as follows: under setting [14], 100%; under setting [15], 110%; under setting [16], 105%; under setting [17], 125%; under setting [30], 67%; under setting [31], 20.9%. The viability, T/C under setting [18] was 62.4%; the viability, T/C under setting [19] is 64.5%; the viability, T/C under setting [20] was 69%; the viability, T/C under setting [21] is 53.6%; the viability, T/C under setting [32] is 26.9%; the viability, T/C under setting [33] was 5.56%. For the same compound, the viability, T/C under setting [22] was 18.2%; the viability, T/C under setting [23] is 18.7%; the viability, T/C under setting [24] was 20.6%; the viability, T/C under setting [25] is 17.5%; the viability, T/C under setting [34] is 3.02%; the viability, T/C under setting [35] is 0.89%.
Consider `CC1(C)CCC(CN2CCN(c3ccc(C(=O)NS(=O)(=O)c4ccc(NCC5CCOCC5)c([N+](=O)[O-])c4)c(Oc4cnc5[nH]ccc5c4)c3)CC2)=C(c2ccc(Cl)cc2)C1` + CC(CO)NC(=O)c1cc(-c2ccc(Cl)cc2)nn(-c2cnn(C)c2)c1=O, for which the IC50 by setting is: under setting [1], > 10000 nM; under setting [2], > 10000 nM; under setting [3], > 10000 nM; under setting [4], > 10000 nM; under setting [5], > 10000 nM. In addition, the viability, T/C reads like this: under setting [6], 109%; under setting [7], 101%; under setting [8], 106%; under setting [9], 99.9%; under setting [26], 90.7%; under setting [27], 77.7%. The viability, T/C under setting [10] is 105%; the viability, T/C under setting [11] is 115%; the viability, T/C under setting [12] is 101%; the viability, T/C under setting [13] was 98.4%; the viability, T/C under setting [28] was 91.3%; the viability, T/C under setting [29] was 81.3%. Also, the viability, T/C under setting [14] is 105%; the viability, T/C under setting [15] is 103%; the viability, T/C under setting [16] is 106%; the viability, T/C under setting [17] is 97.9%; the viability, T/C under setting [30] was 104%; the viability, T/C under setting [31] was 80.8%. Moreover, the viability, T/C under setting [18] was 116%; the viability, T/C under setting [19] is 111%; the viability, T/C under setting [20] is 104%; the viability, T/C under setting [21] is 96.4%; the viability, T/C under setting [32] is 82.9%; the viability, T/C under setting [33] was 82.5%. The viability, T/C under setting [22] is 114%; the viability, T/C under setting [23] was 135%; the viability, T/C under setting [24] was 109%; the viability, T/C under setting [25] was 122%; the viability, T/C under setting [34] was 98.4%; the viability, T/C under setting [35] was 86.4%.
For the compound `Cc1ccccc1N=Nc1ccc(NC(=O)c2ccnn2C)c(C)c1`, the viability, T/C reads like this: (compound 0.1 µM) 99.5% [middle of 20 runs]; (compound 0.316 µM) 99.1% [middle of 20 runs]; (compound 1 µM) 97.1% [middle of 20 runs]. The 50% inhibitory concentration (IC50) (compound alone, run of 08/22/2022) is > 10000 nM.
Turning to `CCc1c2c(nc3ccc(O)cc13)-c1cc3c(c(=O)n1C2)COC(=O)[C@]3(O)CC`, the viability, T/C by setting is: (compound 0.000949 µM) 86.2% and 105% and 92.8%; (compound 0.003 µM) 71.8% and 98.8% and 87.3%; (compound 0.00949 µM) 17.6% and 23.2% and 15.3%; (compound 0.03 µM) 5.33% and 8.68% and 6.03%; (compound 0.0949 µM) 2.54% and 5.4% and 3.46%; (compound 0.3 µM) 2.09% and 4.14% and 2.23%. Moreover, the IC50 (curve of compound) is 4.77 nM and 6.31 nM and 5.45 nM.

The values above are taken from PubChem BioAssay AID1919003 (Molecular Pharmacology Branch, DTP, NCI, 2023).
